SMILES strings stand for the structures. Residues, ends and D or L forms follow the SMILES beside them. *: point of attachment. X1 = O=C(O)CCC(NC(=O)NC(CCCCNC(=O)CCCCCCC(=O)*)C(=O)O)C(=O)O; Acetyl(2-STrt) = O=C(CSC(c1ccccc1)(c1ccccc1)c1ccccc1)*

From paper PMC3773988 (Journal of medicinal chemistry, 2013) come the findings set out here.

For the experiment, the target named is PSMA (Homo sapiens, UniProt Q04609). Briefly: NAALADase assay. Type of experiment: biochemical.
Sequence of PSMA (Q04609 whole entry): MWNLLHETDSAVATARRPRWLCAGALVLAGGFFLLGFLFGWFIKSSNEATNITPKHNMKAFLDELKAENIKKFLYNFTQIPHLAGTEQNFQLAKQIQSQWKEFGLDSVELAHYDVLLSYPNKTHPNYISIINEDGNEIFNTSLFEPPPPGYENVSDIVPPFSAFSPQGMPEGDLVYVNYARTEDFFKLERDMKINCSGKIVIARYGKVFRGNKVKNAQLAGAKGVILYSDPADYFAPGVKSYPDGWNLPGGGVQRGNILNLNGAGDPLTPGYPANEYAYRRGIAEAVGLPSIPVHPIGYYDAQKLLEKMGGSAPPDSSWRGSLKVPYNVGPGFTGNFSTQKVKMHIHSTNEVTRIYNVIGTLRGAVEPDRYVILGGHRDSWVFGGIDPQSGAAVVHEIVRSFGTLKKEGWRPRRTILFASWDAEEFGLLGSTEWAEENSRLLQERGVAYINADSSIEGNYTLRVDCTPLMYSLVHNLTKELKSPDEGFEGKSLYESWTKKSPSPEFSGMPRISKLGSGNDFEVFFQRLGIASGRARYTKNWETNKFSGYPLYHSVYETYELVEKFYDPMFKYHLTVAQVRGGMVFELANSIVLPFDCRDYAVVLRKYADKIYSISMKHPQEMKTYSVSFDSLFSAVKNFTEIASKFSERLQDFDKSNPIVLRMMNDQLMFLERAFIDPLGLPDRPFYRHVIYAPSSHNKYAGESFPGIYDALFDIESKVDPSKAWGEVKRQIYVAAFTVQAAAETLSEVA
For `O=C(O)CCC(NC(=O)NC(CCCCNC(=O)CCCCCCC(=O)NCCCCC(NC(=O)C(Cc1ccccc1)NC(=O)CNC(=O)CNC(=O)CSC(c1ccccc1)(c1ccccc1)c1ccccc1)C(=O)O)C(=O)O)C(=O)O` (centres unmarked) [Compound L12, 12-benzyl-4,7,10,13,21,28,36-heptaoxo-1,1,1-triphenyl-2-thia-5,8,11,14,20,29,35,37-octaazatetracontane-15,34,38,40-tetracarboxylic acid] ({Acetyl(2-STrt)}-GGFK(X1)-OH; configuration not given here), affinity was put at a Ki of 0.13 nM. In turn, `NNc1ccc(C(=O)NCCCCC(NC(=O)CCCCCCC(=O)NCCCCC(NC(=O)NC(CCC(=O)O)C(=O)O)C(=O)O)C(=O)O)cn1` (centres unmarked) [Compound L19, 2-(3-[1-Carboxy-5-(7-(1-carboxy-5-[(6-hydrazino-pyridine-3-carbonyl)-amino]-pentylcarbamoyl)-heptanoylamino)-pentyl]-ureido)-pentanedioic acid] gave a Ki of 1.74 nM.

Consider `O=C(O)CCC(NC(=O)NC(CCCCNC(=O)CCCCCCC(=O)NCCCCC(NC(=O)CNC(=O)CNC(=O)CSC(c1ccccc1)(c1ccccc1)c1ccccc1)C(=O)O)C(=O)O)C(=O)O` (centres unmarked) [Compound L11], for which the Ki came to 0.03 nM. For `O=C(O)CC[C@H](NC(=O)N[C@@H](CCCCNC(=O)CCCCCCC(=O)NCCCC[C@@H](NC(=O)C(CNC(=O)CSC(c1ccccc1)(c1ccccc1)c1ccccc1)NC(=O)CSC(c1ccccc1)(c1ccccc1)c1ccccc1)C(=O)O)C(=O)O)C(=O)O` (stereo partly drawn) [Compound L16, (10R, 29S ,33S)-4,8,16,23,31-pentaoxo-1,1,1-triphenyl-7-(2-(tritylthio)acetamido)-2-thia-5,9,15,24,30,32-hexaazapentatriacontane-10,29,33,35-tetracarboxylic acid], the affinity corresponds to a Ki of 0.048 nM. As for `O=C(O)CCC(NC(=O)NC(CCCCNC(=O)CCCCCCC(=O)NC(CCCCN(CC(=O)O)Cc1ccccn1)C(=O)O)C(=O)O)C(=O)O` (centres unmarked) [Compound L9, 2-[3-(1-Carboxy-5-(7-[1-carboxy-5-(carboxymethyl-pyridin-2-ylmethyl-amino)-pentylcarbamoyl]-heptanoylamino)-pentyl)-ureido]-pentanedioic acid], the affinity, expressed as Ki, was 12.6 nM.

The compound `NC(Cc1cn(CCCC[C@H](NC(=O)CCCCCCC(=O)NCCCC[C@H](NC(=O)N[C@@H](CCC(=O)O)C(=O)O)C(=O)O)C(=O)O)nn1)C(=O)O` (stereo partly drawn) [Compound L8, (3S,7S,22S)-26-(4-(2-amino-2-carboxyethyl)-1H-1,2,3-triazol-1-yl)-5,13,20-trioxo-4,6,12,21-tetraazahexacosane-1,3,7,22-tetracarboxylic acid] gave a Ki of 1.12 nM. `O=C(O)CCC(NC(=O)NC(CCCCNC(=O)CCCCCCC(=O)NC(CCCCN(Cc1ncc[nH]1)Cc1ncc[nH]1)C(=O)O)C(=O)O)C(=O)O` (centres unmarked) [Compound L10, 2-{3-[5-(7-(5-[Bis-(1H-imidazol-2-ylmethyl)-amino]-1-carboxy-pentylcarbamoyl)-heptanoylamino)-1-carboxy-pentyl]-ureido}-pentanedioic acid] showed a Ki of 16.3 nM. Take `O=C(O)CCC(NC(=O)NC(CCCCNC(=O)CCCCCCC(=O)NCCCCC(NC(=O)C(Cc1ccccc1)NC(=O)C(Cc1ccccc1)NC(=O)CNC(=O)CNC(=O)CSC(c1ccccc1)(c1ccccc1)c1ccccc1)C(=O)O)C(=O)O)C(=O)O` (centres unmarked) [Compound L13, 12,15-dibenzyl-4,7,10,13,16,24,31,39-octaoxo-1,1,1-triphenyl-2-thia-5,8,11,14,17,23,32,38,40-nonaazatritetracontane-18,37,41,43-tetracarboxylic acid] ({Acetyl(2-STrt)}-GGFFK(X1)-OH; configuration not given here): affinity was put at a Ki of 1.91 nM.
